The values below come from patent US6046190A, “Hydroxyethylamino sulphonamides useful as retroviral protease inhibitors” (G.D. Searle & Co., priority 1996, dated 2000).

The target in series [1] is T1, HIV protease (Human immunodeficiency virus type 1 group M subtype B, UniProt P04585).
T1 construct: HIV protease is diluted in the assay buffer to a final enzyme concentration of 12.3 nanomolar, based on a molecular weight of 10,780
Kind of series: biochemical. In kind it is biochemical. The following applies: Table 21; above-described enzyme assay. How it is done: The enzyme method is described below. […] The positive control is MVT-101 (Miller, M. et al, Science, 246, 1149 (1989)]. The assay conditions are as follows:
20 mM sodium phosphate, pH 6.4
The above described substrate is dissolved in DMSO, then diluted 10 fold in assay buffer. Final substrate concentration in the assay is 80 μM.
The final concentration of DMSO is 14% and the final concentration of glycerol is 18%. The test compound is dissolved in DMSO and diluted in DMSO to 10× the test concentration; 10 μl of the enzyme preparation is added, the materials mixed and then the mixture is incubated at ambient temperature for 15 minutes. The enzyme reaction is initiated by the addition of 40μl of substrate. The increase in fluorescence is monitored at 4 time points (0, 8, 16 and 24 minutes) at ambient temperature. Each assay is carried out in duplicate wells.

The test system of series [2] is HIV-1 in CEM cells. As to the kind of experiment: HIV inhibition assay of acutely infected CEM cells (tetrazolium/MTT colorimetric), antiviral efficacy. The format is cell-based. The following applies: Human immunodeficiency virus 1, CCRF-CEM, 168 h. The text has this:
(§1) Methods, 20, 309-321 (1988).
(§2) [table 42: the next 8 blocks are its lines as printed, fixed-width]

Series [3] is described as follows: in vitro. The following applies: human.
From the text: as §1, §2

Structures are written as SMILES.

In general, IC50 refers to the midpoint of a concentration-inhibition curve. In general, EC50 refers to the midpoint of the concentration-response curve. The low end stands for an effect from little substance, the high end for a need for much substance. By CC50 is commonly meant the concentration that lowers cell viability or growth by half. High values mean better tolerance by the cells, low ones harm at low concentration. `CCCN(C[C@@H](O)[C@H](Cc1ccccc1)NC(=O)[C@H](CC(N)=O)NC(=O)OCc1ccccc1)S(=O)(=O)c1ccccc1` [Example 7] came in with a concentration for half-maximal inhibition (IC50) in series [1] of 3 nM. Besides, the EC50 in series [2] worked out at 25 nM. In series [3] (cem cells), this compound gave a cytotoxic concentration (CC50) at 168 h of 39 nM.
Turning to `COCCCN(C[C@@H](O)[C@H](Cc1ccccc1)NC(=O)OCc1ccccc1)S(=O)(=O)c1ccccc1` [Example 9], the midpoint of the response in series [2], the EC50, lay at 398 nM. For the same compound, the CC50 at 168 h in series [3] stood at 15 nM.
For `CSCCCN(C[C@@H](O)[C@H](Cc1ccccc1)NC(=O)OCc1ccccc1)S(=O)(=O)c1ccccc1` [Example 10], in series [2], the midpoint of the response, the EC50, lay at 700 nM. The compound also yielded a CC50 at 168 h in series [3] of 12 nM.
In the same order, the values of `CC(C)CCN(C[C@@H](O)[C@H](Cc1ccccc1)NC(=O)[C@@H](NC(=O)CN(C)C)C(C)(C)C)S(=O)(=O)c1ccccc1` [Example 11] are 11 nM and 54 nM.
Turning to `CC(C)CCN(C[C@@H](O)[C@H](Cc1ccccc1)NC(=O)[C@H](Cc1cnc[nH]1)NC(=O)c1ccc2ccccc2n1)S(=O)(=O)c1ccccc1` [Example 12], the half-maximal effective concentration (EC50) in series [2] was 12 nM. Moreover, the CC50 at 168 h in series [3] stood at 7.5 nM.
`CC(C)CN(C[C@@H](O)[C@H](Cc1ccccc1)NC(=O)OCc1cccnc1)S(=O)(=O)c1ccccc1` [Example 16] registered an EC50 in series [2] of 80 nM. In series [3], the CC50 at 168 h worked out at 62000 nM.
`COc1ccc(S(=O)(=O)N(CC(C)C)C[C@@H](O)[C@H](Cc2ccccc2)NC(=O)OCc2cccnc2)cc1` [Example 17] displayed a concentration for a half-maximal effect (EC50) in series [2] of 5 nM. For the same compound, the CC50 at 168 h in series [3] came to 59000 nM.
The matching figures for `COc1ccc(S(=O)(=O)N(CC(C)C)C[C@@H](O)[C@H](Cc2ccccc2)NC(=O)OCc2ccncc2)cc1` [Example 22]: 18 nM and 31000 nM.
In the same order, the values of `COc1ccc(S(=O)(=O)N(CC(C)C)C[C@@H](O)[C@H](Cc2ccccc2)NC(=O)OCc2ccc[n+]([O-])c2)cc1` [Example 25] are 120 nM and 167000 nM.
`COc1ccc(S(=O)(=O)N(CC(C)C)C[C@@H](O)[C@H](Cc2ccccc2)NC(=O)OC(C)(C)C)cc1` [Example 27] showed an EC50 in series [2] of 177 nM. The same compound displayed a CC50 at 168 h in series [3] (cem cells) of 300000 nM.
With `COc1ccc(S(=O)(=O)N(CC(C)C)C[C@@H](O)[C@H](Cc2ccccc2)NC(=O)c2ccccc2)cc1` [Example 28], in series [2], the EC50 stood at 76 nM. Besides, in series [3], half-maximal cytotoxicity (CC50 at 168 h) was put at 213000 nM.
The compound `COc1ccc(S(=O)(=O)N(CC(C)C)C[C@@H](O)[C@H](Cc2ccccc2)NC(=O)c2ccccc2C)cc1` [Example 29] showed an EC50 in series [2] of 105 nM. The CC50 at 168 h in series [3] is 196000 nM.
Turning to `COc1ccc(S(=O)(=O)N(CC(C)C)C[C@@H](O)[C@H](Cc2ccccc2)NC(=O)c2ccccc2Cl)cc1` [Example 30], in series [2], the EC50 was found to be 154 nM. This compound registered a half-maximal cytotoxic concentration (CC50) at 168 h in series [3] of 154000 nM.
In the same order, the values of `COc1ccc(S(=O)(=O)N(CC(C)C)C[C@@H](O)[C@H](Cc2ccccc2)NC(=O)c2c(C)cccc2C)cc1` [Example 32] are 98 nM and 17000 nM.
